These are literature values, as cited in patent US5837685A (priority 1996, dated 1998).

Data set [1] relates to Candida.
In data set [2] the test system is patients. As to conditions: some impairment of renal function regardless of dosage.

SMILES strings stand for the structures.

On to `C[C@@H]1[C@H](O)[C@@H](C)/C=C/C=C/C=C/C=C/C=C/C=C/C=C/[C@H](O[C@@H]2O[C@H](C)[C@@H](O)[C@H](N)[C@@H]2O)C[C@@H]2O[C@](O)(C[C@@H](O)C[C@@H](O)[C@H](O)CC[C@@H](O)C[C@@H](O)CC(=O)O[C@H]1C)C[C@H](O)[C@H]2C(=O)O` [Amphotericin B], for which the “active in vitro at concentrations of” value in data set [1] was 0.01 to 2 µg/mL. For the same compound, the toxicity result in data set [2] is “highly toxic”.
